The subject of this data set is CCRIS mutagenicity, Ames/micronucleus/aberration tests. Description: CCRIS mutagenicity studies.
The mark [1] stands for this setting: Test System: AMES SALMONELLA TYPHIMURIUM, Strain/Indicator: TA98, Metabolic Activation: NONE, Method: PREINCUBATION
Where [2] appears, read: Test System: AMES SALMONELLA TYPHIMURIUM, Strain/Indicator: TA98, Metabolic Activation: NONE, Method: STANDARD PLATE.
[3] abbreviates: Test System: AMES SALMONELLA TYPHIMURIUM, Strain/Indicator: TA100, Metabolic Activation: NONE, Method: STANDARD PLATE.

Drawing on PubChem BioAssay AID1259407 (Chemical Carcinogenesis Research Information System (CCRIS), 2018), this text covers mutagenic call for seven compounds.

Activity calls are given as the source filed them. No rule for the calls is given here.

As to `CS`, the mutagenic call is “inactive; negative” under setting [1]; “inactive; negative” (Test System: AMES SALMONELLA TYPHIMURIUM, Strain/Indicator: TA98, Metabolic Activation: RAT, LIVER, S-9, SODIUM PHENOBARBITAL AND 5,6-BENZOFLAVONE, Method: PREINCUBATION); “inactive; negative” (Test System: AMES SALMONELLA TYPHIMURIUM, Strain/Indicator: TA100, Metabolic Activation: NONE, Method: PREINCUBATION); “inactive; negative” (Test System: AMES SALMONELLA TYPHIMURIUM, Strain/Indicator: TA100, Metabolic Activation: RAT, LIVER, S-9, SODIUM PHENOBARBITAL AND 5,6-BENZOFLAVONE, Method: PREINCUBATION); “inactive; negative” (Test System: AMES SALMONELLA TYPHIMURIUM, Strain/Indicator: TA102, Metabolic Activation: NONE, Method: PREINCUBATION); “inactive; negative” (Test System: AMES SALMONELLA TYPHIMURIUM, Strain/Indicator: TA102, Metabolic Activation: RAT, LIVER, S-9, SODIUM PHENOBARBITAL AND 5,6-BENZOFLAVONE, Method: PREINCUBATION). The mutagenic call was “inactive; negative” (Test System: AMES SALMONELLA TYPHIMURIUM, Strain/Indicator: TA104, Metabolic Activation: NONE, Method: PREINCUBATION); “inactive; negative” (Test System: AMES SALMONELLA TYPHIMURIUM, Strain/Indicator: TA104, Metabolic Activation: RAT, LIVER, S-9, SODIUM PHENOBARBITAL AND 5,6-BENZOFLAVONE, Method: PREINCUBATION); “inactive; negative” (Test System: AMES SALMONELLA TYPHIMURIUM, Strain/Indicator: TA1535, Metabolic Activation: NONE, Method: PREINCUBATION); “inactive; negative” (Test System: AMES SALMONELLA TYPHIMURIUM, Strain/Indicator: TA1535, Metabolic Activation: RAT, LIVER, S-9, SODIUM PHENOBARBITAL AND 5,6-BENZOFLAVONE, Method: PREINCUBATION); “inactive; negative” (Test System: AMES SALMONELLA TYPHIMURIUM, Strain/Indicator: TA1537, Metabolic Activation: NONE, Method: PREINCUBATION); “inactive; negative” (Test System: AMES SALMONELLA TYPHIMURIUM, Strain/Indicator: TA1537, Metabolic Activation: RAT, LIVER, S-9, SODIUM PHENOBARBITAL AND 5,6-BENZOFLAVONE, Method: PREINCUBATION). The mutagenic call was “inactive; negative” (Test System: E. COLI, Strain/Indicator: WP2UVRA/PKM101, Metabolic Activation: NONE, Method: PREINCUBATION); “inactive; negative” (Test System: E. COLI, Strain/Indicator: WP2UVRA/PKM101, Metabolic Activation: RAT, LIVER, S-9, SODIUM PHENOBARBITAL AND 5,6-BENZOFLAVONE, Method: PREINCUBATION); “inactive; negative” (Test System: E. COLI, Strain/Indicator: WP2UVRA, Metabolic Activation: NONE, Method: PREINCUBATION); “inactive; negative” (Test System: E. COLI, Strain/Indicator: WP2UVRA, Metabolic Activation: RAT, LIVER, S-9, SODIUM PHENOBARBITAL AND 5,6-BENZOFLAVONE, Method: PREINCUBATION).
Regarding `CC(C)(C)c1cc(-c2ccccc2)ccc1[N+](=O)[O-]`, the mutagenic call was “inactive; negative” under setting [2]; “inactive; negative” (Test System: AMES SALMONELLA TYPHIMURIUM, Strain/Indicator: TA98, Metabolic Activation: S-9, Method: STANDARD PLATE); “inactive; negative” under setting [3]; “inactive; negative” (Test System: AMES SALMONELLA TYPHIMURIUM, Strain/Indicator: TA100, Metabolic Activation: S-9, Method: STANDARD PLATE).
As to `C[C@@](Cc1ccc(O)c(O)c1)(NN)C(=O)O`, the mutagenic call under setting [3] is “active; positive”; the mutagenic call (Test System: AMES SALMONELLA TYPHIMURIUM, Strain/Indicator: TA100, Metabolic Activation: RAT, LIVER, S-9, PHENOBARBITAL, Method: STANDARD PLATE) was “active; positive”; the mutagenic call (Test System: UDS RAT HEPATOCYTES, Strain/Indicator: THY INCORP, Metabolic Activation: NONE, Method: AUTORADIOGRAPHY) was “inactive; negative”.
Regarding `O=P1(Oc2ccccc2)OCc2ccccc2O1` (stereo not given), the mutagenic call is “active; positive” under setting [3] and “active; positive” (Test System: AMES SALMONELLA TYPHIMURIUM, Strain/Indicator: TA100, Metabolic Activation: RAT, LIVER, MICROSOMES, Method: STANDARD PLATE).
For `O=[N+]([O-])c1cc2cccc([N+](=O)[O-])c2c2ccccc12`, the mutagenic call was “active; positive” (Test System: AMES SALMONELLA TYPHIMURIUM, Strain/Indicator: TA98(1,8-DNP6), Metabolic Activation: NONE, Method: STANDARD PLATE); “active; positive” (Test System: AMES SALMONELLA TYPHIMURIUM, Strain/Indicator: TA98(NR), Metabolic Activation: NONE, Method: STANDARD PLATE); “active; positive” under setting [2]; “active; positive” under setting [3]; “active; positive” (Test System: AMES SALMONELLA TYPHIMURIUM, Strain/Indicator: YG1021, Metabolic Activation: NONE, Method: STANDARD PLATE); “active; positive” (Test System: AMES SALMONELLA TYPHIMURIUM, Strain/Indicator: YG1024, Metabolic Activation: NONE, Method: STANDARD PLATE). In addition, the mutagenic call is, setting by setting: (Test System: AMES SALMONELLA TYPHIMURIUM, Strain/Indicator: YG1026, Metabolic Activation: NONE, Method: STANDARD PLATE) “active; positive”; (Test System: AMES SALMONELLA TYPHIMURIUM, Strain/Indicator: YG1029, Metabolic Activation: NONE, Method: STANDARD PLATE) “active; positive”.
Turning to `C=CC(C)=O`, the mutagenic call was “inactive; negative” (Test System: AMES SALMONELLA TYPHIMURIUM, Strain/Indicator: TA98, Metabolic Activation: HAMSTER, LIVER, S-9, AROCLOR 1254 (30%), Method: PREINCUBATION); “inactive; negative” under setting [1]; “inactive; negative” (Test System: AMES SALMONELLA TYPHIMURIUM, Strain/Indicator: TA98, Metabolic Activation: RAT, LIVER, S-9, AROCLOR 1254 (30%), Method: PREINCUBATION); “active; positive” (Test System: AMES SALMONELLA TYPHIMURIUM, Strain/Indicator: TA100, Metabolic Activation: HAMSTER, LIVER, S-9, AROCLOR 1254 (30%), Method: PREINCUBATION); “inactive; negative” (Test System: AMES SALMONELLA TYPHIMURIUM, Strain/Indicator: TA100, Metabolic Activation: RAT, LIVER, S-9, AROCLOR 1254 (30%), Method: PREINCUBATION); “active; positive” (Test System: AMES SALMONELLA TYPHIMURIUM, Strain/Indicator: TA100, Metabolic Activation: RAT, LIVER, S-9, Method: PREINCUBATION). Besides, the mutagenic call is “inactive; negative” (Test System: AMES SALMONELLA TYPHIMURIUM, Strain/Indicator: TA102, Metabolic Activation: S-9, Method: STANDARD PLATE); “active; positive” (Test System: AMES SALMONELLA TYPHIMURIUM, Strain/Indicator: TA2638, Metabolic Activation: S-9, Method: STANDARD PLATE); “active; positive” (Test System: E. COLI, Strain/Indicator: WP2 (PKM101), Metabolic Activation: S-9, Method: STANDARD PLATE); “active; positive” (Test System: E. COLI, Strain/Indicator: WP2 UVRA (PKM101), Metabolic Activation: S-9, Method: STANDARD PLATE).
With `C1=c2ccccc2=C2Cc3ccccc3C3=C4OC4=C1C32` (stereo not given), the mutagenic call reads like this: under setting [2], “active; positive”; (Test System: AMES SALMONELLA TYPHIMURIUM, Strain/Indicator: TA98, Metabolic Activation: RAT, LIVER, S-9, AROCLOR 1254, Method: STANDARD PLATE) “active; positive”.
